{
  "source": "patent US20060069132A1",
  "about": "“Azolecarboxamide herbicides” (priority 2004, published 2006)",
  "key": {"barnyardgrass": {"tested_on": "barnyardgrass", "assay": "Test B flooded paddy test", "format": "in vivo, Echinochloa crus-galli", "settings": "1000 g ai/ha, scale 0 to 100 (0 no effect, 100 complete control)", "method_in_brief": "(§1)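 Visual control ratings, 0–100 versus untreated controls, taken after 13 to 15 days in the greenhouse. Blackgrass received a postemergence spray at the 1- to 4-leaf stage (2–18 cm); ducksalad, umbrella sedge and barnyardgrass were flooded-paddy treated at 2 leaves.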"}, "Surinam grass": {"tested_on": "Surinam grass", "assay": "Test B pre-/postemergence herbicide test", "format": "in vivo, Urochloa decumbens", "method_in_brief": "(§2)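 Herbicidal effect was judged by eye on a 0–100 scale after plants stood 13 to 15 days in the greenhouse following pre- or postemergence treatment with surfactant-containing formulations.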"}, "wheat": {"tested_on": "wheat", "assay": "Test B postemergence herbicide test", "format": "in vivo, Triticum aestivum", "parameters": "key to Wheat plant response rating: 0 = no effect, 100 = complete control", "method_in_brief": "(§3)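 Plants grow to 1- to 4-leaf stage (2–18 cm) for postemergence spraying, or to 2-leaf stage for the paddy test. Formulated compound is applied. Greenhouse holding lasts 13–15 days. Response is scored visually relative to controls, 0 no effect to 100 complete control; a dash means no result.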"}, "ducksalad": {"tested_on": "ducksalad", "assay": "Test B flooded paddy test", "format": "in vivo, Heteranthera limosa", "settings": "1000 g ai/ha, scale 0 to 100 (0 no effect, 100 complete control)", "method_in_brief": "as §1"}, "lambsquarters": {"tested_on": "lambsquarters", "assay": "Test B pre-/postemergence herbicide test", "format": "in vivo, Chenopodium album", "method_in_brief": "as §2"}, "blackgrass": {"tested_on": "blackgrass", "assay": "Test B postemergence herbicide test", "format": "in vivo, Alopecurus myosuroides", "method_in_brief": "as §1"}, "pigweed": {"tested_on": "pigweed", "assay": "Test B pre-/postemergence herbicide test", "format": "in vivo, Amaranthus retroflexus", "method_in_brief": "as §2"}, "rice": {"tested_on": "rice", "assay": "Test B flooded paddy test", "format": "in vivo, Oryza sativa", "settings": "1000 g ai/ha, scale 0 to 100 (0 no effect, 100 complete control)", "method_in_brief": "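Treated at 2-leaf (paddy) or 1–4-leaf, 2–18 cm (postemergence); greenhouse 13–15 d; visual score vs control, 0 none to 100 complete control; dash = not tested.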"}, "giant foxtail": {"tested_on": "giant foxtail", "assay": "Test B pre-/postemergence herbicide test", "format": "in vivo, Setaria faberi", "method_in_brief": "as §2"}, "wild oat": {"tested_on": "wild oat", "assay": "Test B postemergence herbicide test", "format": "in vivo, Avena fatua", "method_in_brief": "as §3"}, "cocklebur": {"tested_on": "cocklebur", "assay": "Test B pre-/postemergence herbicide test", "format": "in vivo, Xanthium strumarium", "method_in_brief": "(§4)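 Response was scored visually 13 to 15 days after treatment against untreated greenhouse controls, 0 meaning no effect and 100 complete control. Formulations (solvent mixture plus surfactant) went onto soil after planting, onto foliage of 1- to 4-leaf plants, and onto 2-leaf plants in a flooded paddy set including rice and barnyardgrass.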"}, "morningglory": {"tested_on": "morningglory", "assay": "Test B pre-/postemergence herbicide test", "format": "in vivo, Ipomoea coccinea", "method_in_brief": "as §4"}, "velvetleaf": {"tested_on": "velvetleaf", "assay": "Test B pre-/postemergence herbicide test", "format": "in vivo, Abutilon theophrasti", "method_in_brief": "as §2"}, "corn": {"tested_on": "corn", "assay": "Test B pre-/postemergence herbicide test", "format": "in vivo, Zea mays", "method_in_brief": "as §2"}, "[1]": {"tested_on": "small flower umbrella sedge", "assay": "Test B flooded paddy test", "format": "in vivo, Cyperus difformis", "settings": "1000 g ai/ha, scale 0 to 100 (0 no effect, 100 complete control)", "method_in_brief": "as §1"}, "[2]": {"settings": "125 g ai/ha, 0 is no effect, 100 is complete control, preemergence"}, "[3]": {"settings": "Postemergence, 500 g ai/ha, scale 0 (no effect) to 100 (complete control)"}, "[4]": {"settings": "postemergence, 125 g ai/ha, scale 0 to 100"}},
  "data": [
    {"compound": "CCNC(=S)c1cccc(NC(=O)c2nn(C(C)(C)C)nc2C)c1", "note": "[Compound 420]", "values": [
      {"measurement": "Barnyardgrass plant response rating", "setting": "barnyardgrass", "result": 90},
      {"measurement": "Plant response rating (0 to 100 scale), Surinam Grass", "setting": "Surinam grass; [2]", "result": 70},
      {"measurement": "Surinam Grass plant response rating", "setting": "Surinam grass; [3]", "result": 30},
      {"measurement": "Surinam Grass plant response rating", "setting": "Surinam grass; [4]", "result": 20},
      {"measurement": "Wheat plant response rating", "setting": "wheat; 500 g ai/ha, scale 0 to 100, 0 no effect, 100 complete control, preemergence", "result": 100},
      {"measurement": "Wheat plant response rating", "setting": "wheat; [3]", "result": 20},
      {"measurement": "Wheat plant response rating", "setting": "wheat; [4]", "result": 10},
      {"measurement": "Ducksalad plant response rating", "setting": "ducksalad", "result": 80},
      {"measurement": "Plant response rating (0 to 100 scale), Lambsquarters", "setting": "lambsquarters; [2]", "result": 100},
      {"measurement": "Lambsquarters plant response rating", "setting": "lambsquarters; [3]", "result": 90},
      {"measurement": "Lambsquarters plant response rating", "setting": "lambsquarters; [4]", "result": 70},
      {"measurement": "Blackgrass plant response rating", "setting": "blackgrass; [3]", "result": 40},
      {"measurement": "Blackgrass plant response rating", "setting": "blackgrass; [4]", "result": 10},
      {"measurement": "Plant response rating (0 to 100 scale), Pigweed", "setting": "pigweed; [2]", "result": 100},
      {"measurement": "Pigweed plant response rating", "setting": "pigweed; [3]", "result": 70},
      {"measurement": "Pigweed plant response rating", "setting": "pigweed; [4]", "result": 60},
      {"measurement": "Rice plant response rating", "setting": "rice", "result": 60},
      {"measurement": "Plant response rating (0 to 100 scale), Foxtail, Giant", "setting": "giant foxtail; [2]", "result": 80},
      {"measurement": "Foxtail, Giant plant response rating", "setting": "giant foxtail; [3]", "result": 30},
      {"measurement": "Foxtail, Giant plant response rating", "setting": "giant foxtail; [4]", "result": 20},
      {"measurement": "Oat, Wild plant response rating", "setting": "wild oat; [3]", "result": 30},
      {"measurement": "Oat, Wild plant response rating", "setting": "wild oat; [4]", "result": 20},
      {"measurement": "Plant response rating (0 to 100 scale), Cocklebur", "setting": "cocklebur; [2]", "result": 0},
      {"measurement": "Cocklebur plant response rating", "setting": "cocklebur; [3]", "result": 40},
      {"measurement": "Cocklebur plant response rating", "setting": "cocklebur; [4]", "result": 10},
      {"measurement": "Plant response rating (0 to 100 scale), Morningglory", "setting": "morningglory; [2]", "result": 50},
      {"measurement": "Morningglory plant response rating", "setting": "morningglory; [3]", "result": 90},
      {"measurement": "Morningglory plant response rating", "setting": "morningglory; [4]", "result": 80},
      {"measurement": "Plant response rating (0 to 100 scale), Velvetleaf", "setting": "velvetleaf; [2]", "result": 50},
      {"measurement": "Velvetleaf plant response rating", "setting": "velvetleaf; [3]", "result": 30},
      {"measurement": "Velvetleaf plant response rating", "setting": "velvetleaf; [4]", "result": 20},
      {"measurement": "Plant response rating (0 to 100 scale), Corn", "setting": "corn; [2]", "result": 70},
      {"measurement": "Corn plant response rating", "setting": "corn; [3]", "result": 20},
      {"measurement": "Corn plant response rating", "setting": "corn; [4]", "result": 20},
      {"measurement": "Sedge, Umbrella plant response rating", "setting": "[1]", "result": 70}
    ]}
  ]
}
